US5811078A, “Spray formulations of antihyperalgesic opiates and method of treating topical hyperalgesic conditions therewith” (Adolor Corporation, priority 1997, dated 1998)
Where a name gives a salt, the structure may show the parent alone. Read-outs that look alike come from different tables or passages of the source.

Experiments:
[1] = Peripheral selectivity: ratio of ED50 in the tail-withdrawal assay over ED50 in the anti-diarrheal (castor oil) assay; format: in vivo, female Wistar rats
Description: The cut off time is 15 seconds. […] After each determination the tail is carefully dried.
Each animal is kept in an individual cage.

central nervous system = conditions: reported prior use, antidiarrheal formulations, hydrochloride, cited from earlier work

Row | Structure (SMILES) | Peripheral Selectivity (ED50tw/ED50 Castor Oil) ([1]; po) | also measured
1 | CCN(C)C(=O)C(CCN1CCC(O)(c2ccc(Cl)cc2)CC1)(c1ccccc1)c1ccccc1 [Compound 2, 4-(p-Chlorophenyl)-4-hydroxy-N-ethyl-N-methyl-ααdiphenyl-1-piperidinebutyramide] | ≥ 1,231 | 
2 | CN(C)C(=O)C(CCN1CCC(O)(c2ccc(Br)cc2)CC1)(c1ccccc1)c1ccccc1 [Compound 3, 4-(p-Bromophenyl)-4-hydroxy-N,N-dimethyl-αα-diphenyl-1-piperidinebutyramide] | 800 | 
3 | O=C(N1CCCC1)C(CCN1CCC(O)(c2ccc(Cl)c(Cl)c2)CC1)(c1ccccc1)c1ccccc1 [Compound 4] |  | Peripheral Selectivity (ED50tw/ED50 Castor Oil) ([1]; oral, rats, tail withdrawal ED50 over castor oil test ED50 (both mg/kg)): > 640
4 | O=C(N1CCCC1)C(CCN1CCC(O)(c2ccc(Cl)cc2)CC1)(c1ccccc1)c1ccccc1 [Compound 5, 1-{4-[(4-Chlorophenyl)4-hydroxy-1-piperidino]-2,2-diphenylbutyryl}pyrrolidine] | 593 | 
5 | CN(C)C(=O)C(CCN1CCC(O)(c2ccc(Cl)cc2)CC1)(c1ccccc1)c1ccccc1 [Compound 6, 4-(p-Chlorophenyl)-4-hydroxy-N,N-dimethyl-αα-diphenyl-1-piperidinebutyramide] | 533 | 
6 | CN(C)C(=O)C(CCN1CCC(O)(c2ccc(F)cc2)CC1)(c1ccccc1)c1ccccc1 [Compound 7, 4-(p-Fluorophenyl)-4-hydroxy-N,N-dimethyl-αα-diphenyl-1-piperidinebutyramide] | 500 | 
7 | CN(C)C(=O)C(CCN1CCC(O)(c2ccc(Cl)c(C(F)(F)F)c2)CC1)(c1ccccc1)c1ccccc1 [Compound 8, 4-(4-Chloro3-trifluoromethyl-phenyl)-4-hydroxy-N,N-dimethyl-αα-diphenyl-1-piperidinebutyramide] | 467 | 
8 | O=C(N1CCCC1)C(CCN1CCC(O)(c2ccccc2)CC1)(c1ccccc1)c1ccccc1 [Compound 9, 1-[4-(4-Hydroxy-4phenyl-1piperidino)-2,2-diphenylbutyryl]pyrrolidine] | 437 | 
9 | O=C(N1CCOCC1)C(CCN1CCC(O)(c2cccc(C(F)(F)F)c2)CC1)(c1ccccc1)c1ccccc1 [Compound 10] | > 251 | 
10 | CN(C)C(=O)C(CCN1CCC(O)(c2ccc(Cl)cc2)CC1)(c1ccccc1)c1ccccc1 [loperamide, 4-(p-chlorophenyl)-4-hydroxy-N-N-dimethyl-αα-diphenyl-1-piperidinebutyramide hydrochloride] |  | CNS effects (central nervous system): devoid of CNS effects; CNS effects (central nervous system; listed as Loperamide HCl): completely free of the undesirable CNS effects
